Source: article PMC6420026, “TLR9-mediated dendritic cell activation uncovers mammalian ganglioside species with specific ceramide backbones that activate invariant natural killer T cells” (PLoS Biology, 2019)
Read-outs that look alike come from different tables or passages of the source.

Target: T1, mouse CD1d (mCD1d) (Mus musculus, UniProt P11609)
T1 construct: gene Cd1d1
T1 sequence (P11609 22-305 limits assumed): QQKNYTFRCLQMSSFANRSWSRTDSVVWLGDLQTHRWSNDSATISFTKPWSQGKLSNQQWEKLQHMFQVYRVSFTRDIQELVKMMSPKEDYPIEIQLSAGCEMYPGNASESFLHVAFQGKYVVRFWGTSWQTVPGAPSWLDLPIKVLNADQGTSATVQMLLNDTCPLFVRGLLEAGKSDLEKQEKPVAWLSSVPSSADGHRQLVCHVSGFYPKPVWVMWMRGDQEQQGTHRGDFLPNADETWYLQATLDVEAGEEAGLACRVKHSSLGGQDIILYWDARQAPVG
T1 sequence (P01887 21-119 partner): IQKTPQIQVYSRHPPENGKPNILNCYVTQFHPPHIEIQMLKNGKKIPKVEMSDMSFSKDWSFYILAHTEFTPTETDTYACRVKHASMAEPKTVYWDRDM
Assay: microscale thermophoresis
Format: binding

Structure (SMILES)	Kd (NT-647-labelled mCD1d 125 nM, PBS 25 mM, 0.05% Tyloxapol, up to 5% DMSO, 1:1 fit, labelled protein)	Kd
CCCCCCCC/C=C\CCCCCCCCCCCCCC(=O)N[C@@H](CO[C@@H]1O[C@H](CO)[C@@H](O[C@@H]2O[C@H](CO)[C@H](O)[C@H](O[C@]3(C(=O)O)C[C@H](O)[C@@H](NC(C)=O)[C@H]([C@H](O)[C@@H](CO)O[C@]4(C(=O)O)C[C@H](O)[C@@H](NC(C)=O)[C@H]([C@H](O)[C@H](O)CO)O4)O3)[C@H]2O)[C@H](O)[C@H]1O)[C@H](O)/C=C/CCCCCCCCCCCCC [C24:1 GD3]	69.1 ± 1.5 µM	
CCCCCCCC/C=C\CCCCCCCCCCCCCC(=O)N[C@@H](CO[C@@H]1O[C@H](CO)[C@@H](O[C@@H]2O[C@H](CO)[C@H](O)[C@H](O[C@]3(C(=O)O)C[C@H](O)[C@@H](NC(C)=O)[C@H]([C@H](O)[C@H](O)CO)O3)[C@H]2O)[C@H](O)[C@H]1O)[C@H](O)/C=C/CCCCCCCCCCCCC [C24:1 GM3]		102 ± 2.3 µM
CCCCCCCC/C=C\CCCCCCCCCCCCCC(=O)N[C@@H](CO[C@@H]1O[C@H](CO)[C@@H](O)[C@H](O)[C@H]1O)[C@H](O)/C=C/CCCCCCCCCCCCC [C24:1 β-GlcCer]		2540 µM
